The record followed here is PubChem BioAssay (NCI).

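Assay format: 96-well plates, 48-hour exposure. The concentration for 50% growth inhibition is given as GI50. TGI is the concentration that stops growth completely.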 Bounds are passed on as bounds.

Among the test systems are SF-268 CNS; OVCAR-3 ovarian; SK-MEL-5 melanoma; DU-145 prostate; UO-31 renal; SF-295 CNS; SF-539 CNS; KM12 colon; HT29 colon; OVCAR-5 ovarian.
Common to all, as to assay: DTP human tumour cell line panel, 48 h

Regarding `O=C(O)c1cc2ccccc2c(S(=O)(=O)O)c1O`, the concentration for total growth inhibition (TGI) in the assay with SF-268 CNS, with OVCAR-3 ovarian, with SK-MEL-5 melanoma, in the assay on DU-145 prostate, in the assay with UO-31 renal and in the assay on SF-295 CNS was greater than 100 µM each time. For the same compound, the TGI with SF-539 CNS, in the assay with KM12 colon, with HT29 colon and in the assay on OVCAR-5 ovarian was greater than 100 µM each time.

In the case of `O=c1cc(-c2ccccc2F)[nH]c2cc3c(cc12)OCO3`, the TGI was greater than 100 µM in the assay on SF-268 CNS; 0.779 µM with OVCAR-3 ovarian; 4.41 µM with SK-MEL-5 melanoma; 0.48 µM with DU-145 prostate; greater than 100 µM in the assay with UO-31 renal; 9.84 µM in the assay with SF-295 CNS. Besides, the TGI is 0.357 µM with SF-539 CNS, 17.1 µM in the assay with KM12 colon, 0.643 µM with HT29 colon and greater than 100 µM in the assay with OVCAR-5 ovarian.

`Nc1nc(Nc2ccc(OCc3cccc(F)c3)cc2)c2c(n1)[nH]c1ccc(O)cc12`: the GI50 with SF-268 CNS was 3.1 µM; in the assay on OVCAR-3 ovarian it was 1890 nM; in the assay with SK-MEL-5 melanoma, 4.17 µM; in the assay with DU-145 prostate, 4.22 µM; in the assay with UO-31 renal, 1750 nM; in the assay on SF-295 CNS it was 2500 nM. Also, the GI50 in the assay on SF-539 CNS was 1790 nM; in the assay with KM12 colon, 3.55 µM; in the assay with HT29 colon, 2130 nM; in the assay on OVCAR-5 ovarian, 3.38 µM. The TGI with SF-268 CNS was determined as 12.2 µM; in the assay on OVCAR-3 ovarian, 3.46 µM; with SK-MEL-5 melanoma, 15.2 µM; with DU-145 prostate, 15.6 µM; with UO-31 renal it was 4.12 µM; in the assay with SF-295 CNS, 7.63 µM. The concentration for total growth inhibition (TGI) is 3.31 µM in the assay with SF-539 CNS, 11.7 µM in the assay on KM12 colon, 4.49 µM in the assay with HT29 colon and 14.5 µM in the assay with OVCAR-5 ovarian.
